These results are taken from US20110251230A1, “THERAPEUTICS FOR NEUROLOGICAL DISORDERS” (UNIVERSITY OF SHEFFIELD, priority 2008, published 2011).

Each structure is given as a SMILES string. Where two headings read alike, the source gives them in different places.

Data set [1] has as its system NRF2-ARE pathway in the CHO 4× ARE-TK cell line. Description: ARE reporter assay in CHO 4×ARE-TK-GFP cell line (GFP induction, EthD1 toxicity). (In general: Reporter assays use an easily measured gene product as a stand-in for the process of interest.)
For data set [2], the system named is motor neuronal cell line expressing mutant (G93A) human SOD1. The following applies: prior art; cited from earlier work.
Another data set relates to G93A mouse model of ALS. The following applies: higher doses, once a day, orally from 60 days of age; prior art; cited from earlier work.
In data set [3] the test system is Haem oxygenase 1 and NQO1 gene expression in C6 cells. Description: Multiplex/quantitative RT-PCR for NRF2 regulated genes in C6 cells. Type of data set: cell-based, rat. How it is done:
(§1) Quantitative RT-PCR. (Q-PCR) was performed using 25 ng of cDNA, 1× SYBR Green PCR Master Mix (Stratagene) and optimised concentrations of forward and reverse primers (Table 1), in a total volume of 20 μl and in triplicate for each sample. Following denaturation at 95° C. for 10 min, products were amplified by 40 cycles of 95° C. for 15 s and 60° C. for 1 min, on an MX3000P Real Time PCR System (Stratagene). To ensure amplification of a single product the dissociation curve was produced for each amplification. The relative levels of the genes of interest in the samples was determined by normalizing the level of expression to that of gapdh in each of the samples and by using the ddCt calculation (SYBR Green PCR mix and RT-PCR protocol, Applied Biosystems). Overall relative concentrations of the genes of interest were calculated following drug treatment by normalising the data to the cells grown in the vehicle (DMSO).

Data set [4] concerns motor neurones (MN) in primary mouse astrocyte/MN co-cultures. As to the kind of experiment: Menadione stress in primary mouse astrocyte/motor neurone co-cultures. Type of data set: cell-based. How it is done: Mouse glial cultures were established from C57BI/6 cortices from 1-2 day old pups. Cortices were dissected out and cells dissociated by trituration following incubation in DNasel, collagenase and trypsin. The incubation and trituration steps were repeated to ensure complete dissociation of cells. Cells were plated at 45,000 cells/cm^2 in DMEM containing 10% FBS, 100 U/ml penicillin, and 100 μg/ml streptomycin. After 24 hours, cultures were washed in PBS and grown for 2-3 weeks until confluent, changing the medium once a week. Confluent glial cultures were enriched for astrocytes by shaking and mild trypsinisation. Enriched astrocytes were grown to confluency and plated onto coverslips coated with poly-D-ornithine (1.5 mg/ml; Sigma, Poole, UK) at 40,000 cells/cm^2, and grown for 1 week. […]
When co-cultures were established for 2 weeks, neuroprotection assays were performed by 24 hrs exposure to drug or vehicle followed by a 6 hour 10 micromolar menadione oxidative stress or glutamate. […] Total MNs were counted by fluorescent microscopy in a 1.5 cm^2 area per coverslip. […] Both vehicle and drug treatments were counted before and after stress treatment, and results were statistically analysed by 2 way anova using Bonferroni post tests.
The co-cultures were then challenged for 6 hours with 10 μM menadione to induce oxidative stress and motor neurones stained and counted. […]

Data set [5] has as its system NQO1 and HO1 transcripts in primary mouse astrocytes from G93A mutant SOD1 transgenic mice. As to the kind of experiment: Quantitative RT-PCR of NQO1 and HOX1 in G93A mutant SOD1 primary mouse astrocytes. The format is cell-based. As for the experimental part:
as §1

The subject of the next data set is C6 (rat) astrocytic line. As to the kind of experiment: C6 oxidative stress assay (serum withdrawal, DCF).
Data set [6] deals with NSC34 mouse motor neuronal cells. As to the kind of experiment: NSC34 oxidative stress assay (serum withdrawal, DCF). To be noted: NSC34.
Method: (§2) A simple oxidative stress assay was used to determine whether preconditioning with NRF2-ARE inducing drugs could protect against a subsequent oxidative stress insult (serum withdrawal). The NSC34, C6 and 1321N1 cells were plated in 96 well tissue culture plates to achieve 30% confluency. […] Media was then replaced with serum free, phenol free media for 5 hrs. […] Cell survival assay was then performed on the cells as protection is measured as % reduction in DCF signal, therefore data points were excluded where a decrease in cell number was measured.
(§3) Briefly methylthiazolyldiphenyl-tetrazolium bromide (MTT) was added to the cells and a blank well to a final concentration 0.5 mg/ml and incubated at 37° C. for 1-3 hrs depending on the cell line used.
In data set [7] the test system is 1321N1 (human) astrocytic line. As to the kind of experiment: 1321N1 oxidative stress assay (serum withdrawal, DCF).
Method: as §2, §3
Data set [8] relates to NRF2-ARE pathway in C6 cells. As to the kind of experiment: ARE reporter assay in C6 astrocyte cell line. Type of data set: cell-based, rat. From the text: NRF2-ARE Inducing activity of the best hit compounds in neuronal and astrocytic cell lines was investigated. In order to determine whether the differences in protection in astrocytic and motor neuronal cell lines was due to differences in the degree of activation of the NRF2-ARE pathway in these cell types, the NRF2-ARE reporter construct was stably expressed in both the astrocytic (C6) and motor neuronal (NSC34) cell lines. The 17 best hit molecules were then screened in each cell line. We also screened the S [+] enantiomer of apomorphine as it can exist as either an R[−] or S[+] enantiomer. The […] enantiomer has dopamine agonist activity whereas the S[+] enantiomer has lost this activity and so we wanted to determine whether it retains NRF2-ARE inducing activity. In general activation of the NRF2-ARE pathway in the C6 cells was similar to that seen in the CHO cell line. […].

The subject of data set [9] is HO-1 and NQO-1 transcripts. As to the kind of experiment: In vivo pharmacodynamics, QRT-PCR for HO-1 and NQO-1 in mice. To be noted: mouse.
The conditions of data set [10]: mouse, in vivo, iv.

On to `O=C(O[C@@H]1Cc2c(O)cc(O)cc2O[C@@H]1c1cc(O)c(O)c(O)c1)c1cc(O)c(O)c(O)c1` [EGCG, catechin-(−) epigallocatechin-3-gallate, reference compound], for which the “fluorescence in the control TK-GFP cell line” value in data set [1] (control TK-GFP CHO cell line) is “No increase in fluorescence”. Besides, in data set [1] (narrow window, 24 h, serum free medium), the “concentration of peak ARE activation (GFP expression)” value amounted to 100 µM. The “concentration giving partial protection from H2O2 induced cell death” value in data set [2] is listed as “greater than 20 μM”. In addition, in the data set with G93A mouse model of ALS, the survival entry is “significant extension in survival”.
Consider `C=C1CC[C@@H]2[C@](C)(CO)[C@H](O)CC[C@@]2(C)[C@@H]1C/C=C1/C(=O)OC[C@H]1O` [Andrographolide], for which the “Lowest dose with toxicity” value in data set [1] (Chinese hamster, 24 h) was 100 µM; in the data set with C6 (rat) astrocytic line (C6), 10 µM; in [6] it was 10 µM; in data set [7] (1321N1), 10 µM. The EC50 (usually the concentration at which the effect is half-maximal) is 740 nM in data set [1] (Cricetulus griseus, 24 h, read-out: Average EC50, CHO 4×ARE-TK-GFP, GFP induction, 24 h) and 740 nM in [1] (Cricetulus griseus, CHO ARE reporter). Also, in data set [1] (Cricetulus griseus, 24 h, read-out: Average fold GFP induction at maximal response), the maximal fold induction was 3.61. For the same compound, the “Haem oxygenase 1 and NQO1 gene expression” value in [3] (C6 cells, 24 h, EC50 and EC90 concentrations) is “statistically significant changes in gene expression”. The “reduction in motor neurone number after menadione” value in data set [4] (24 h pre-treatment, 6 hours 10 μM menadione, DMSO control approximately 25% reduction) is reported as “not seen”. The “transcripts for NQO1 and HO1” value in data set [5] (G93A mutant SOD1 astrocytes, 24 hour pre-treatment, EC90 concentrations) is “significant increase”. Further, the IC50 (as a rule, the concentration needed to halve the response being measured) in the data set with C6 (rat) astrocytic line (C6, 24 h pre-treatment, serum withdrawal, DCF) stood at 192 nM; in data set [7] (1321N1, 24 h pre-treatment, serum withdrawal, DCF) it was 501 nM.
For `CN1CCc2cccc3c2[C@H]1Cc1ccc(O)c(O)c1-3.Cl` (single isomer, unassigned) [S[+] apomorphine, S [+] apomorphine], in [8], the “NRF2-ARE activation in C6 reporter cell line” value is reported as “equally potent”. In addition, the “Haem oxygenase 1 and NQO1 gene expression” value in data set [3] is on record as “statistically significant changes in gene expression”. For the same compound, the “reduction in motor neurone number after menadione” value in data set [4] was “not seen”. For the same compound, the “transcripts for NQO1 and HO1” value in [5] was “significant increase”. Moreover, in [9], the “induction of HO-1 and NQO-1 transcripts” value is given as “significant induction”. In data set [10], the “levels of the compound in plasma, brain and cerebral spinal fluid” value is “detected”.
